# Legend:
# [1] = system: LNCaP hormone-dependent prostate cancer cells; experiment: Cytotoxicity assay, LNCaP hormone-dependent prostate cancer cells; format: cell-based, human
# [2] = system: panel of three human cancer cells; experiment: Cytotoxicity assay, panel of three human cancer cells; format: cell-based; settings: range over the panel of three human cancer cells
# [3] = system: Lu1 human lung cancer cells; experiment: Cytotoxicity assay, Lu1 human lung cancer cells; format: cell-based
# [4] = system: MCF-7 human breast cancer cells; experiment: Cytotoxicity assay, MCF-7 human breast cancer cell line; format: cell-based
# NF-κB p65 = NF-κB p65 (Homo sapiens, UniProt Q04206); experiment: Enzyme-based ELISA NF-κB p65 assay; format: biochemical; settings: inhibition of binding of NF-κB to DNA; Hela nuclear extract
# Sequence of NF-κB p65 (Q04206 whole entry): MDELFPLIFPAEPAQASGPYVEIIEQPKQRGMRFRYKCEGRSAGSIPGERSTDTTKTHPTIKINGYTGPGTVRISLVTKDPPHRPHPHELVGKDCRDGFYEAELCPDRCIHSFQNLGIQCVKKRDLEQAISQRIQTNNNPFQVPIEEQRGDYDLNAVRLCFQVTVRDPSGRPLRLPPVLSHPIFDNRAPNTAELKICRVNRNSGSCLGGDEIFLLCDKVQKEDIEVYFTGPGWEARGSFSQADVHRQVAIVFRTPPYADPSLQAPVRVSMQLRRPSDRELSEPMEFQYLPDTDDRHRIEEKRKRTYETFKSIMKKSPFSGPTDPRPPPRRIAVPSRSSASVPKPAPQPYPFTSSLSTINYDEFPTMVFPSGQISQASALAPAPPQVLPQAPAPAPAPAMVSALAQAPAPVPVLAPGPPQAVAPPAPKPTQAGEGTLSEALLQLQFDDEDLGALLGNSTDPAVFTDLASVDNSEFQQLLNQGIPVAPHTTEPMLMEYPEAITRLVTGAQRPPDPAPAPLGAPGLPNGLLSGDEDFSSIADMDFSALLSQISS
# Sequence of NF-κB p65 (P19838 1-433 partner limits assumed): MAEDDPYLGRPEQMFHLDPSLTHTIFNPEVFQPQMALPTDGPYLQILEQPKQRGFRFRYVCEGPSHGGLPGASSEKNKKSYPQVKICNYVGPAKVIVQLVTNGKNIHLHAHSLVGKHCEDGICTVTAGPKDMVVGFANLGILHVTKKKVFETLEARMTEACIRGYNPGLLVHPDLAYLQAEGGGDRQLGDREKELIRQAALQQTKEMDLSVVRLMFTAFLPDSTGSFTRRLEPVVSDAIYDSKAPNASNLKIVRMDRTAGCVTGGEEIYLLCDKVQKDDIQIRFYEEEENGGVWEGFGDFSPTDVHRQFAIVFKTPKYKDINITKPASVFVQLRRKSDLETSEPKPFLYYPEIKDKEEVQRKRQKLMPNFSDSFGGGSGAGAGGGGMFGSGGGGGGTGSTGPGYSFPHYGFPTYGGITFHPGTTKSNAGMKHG
ED50 (NF-κB p65),Compound,ED50 [1],ED50 values [2],ED50 [3],ED50 [4]
,"COc1ccc([C@@H]2CC(=O)c3c(O)cc(OC)cc3O2)cc1 [Compound 3, (S)-5-hydroxy-7,4′-dimethoxyflavanone]",6.7 µM,1.1 to 6.7 µM,4.7 µM,1.1 µM
10.3 µM,"methyl 3,4,5-O-tricaffeoyl quinate [Compound 4]",,,,

# — PMC3182149 (Phytochemistry letters, 2011)
